Reference: PubChem BioAssay AID434951 (Broad Institute, 2010)
Active and inactive are the calls of the source.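 How the source made its calls: active means a fitted half-maximal concentration EC50 for the rise in nuclear signal no higher than ten times the top dose tested; inconclusive means flat fit with activity between 30% and 70%, or unusable fit; inactive means EC50 beyond ten times the top dose.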

Biological target: Hypoxia-inducible factor 1-alpha (Homo sapiens) (UniProt Q16665)
Assay: activators of HIF1alpha nuclear accumulation, confirmation, imaging, fluorescence, U2OS GFP-HIF1alpha (AID 434951)
Details: U2OS GFP-HIF1alpha nuclear intensity, high-content imaging

Hypoxia-inducible factor 1-alpha (Homo sapiens), sequence (Q16665 whole entry, looked up): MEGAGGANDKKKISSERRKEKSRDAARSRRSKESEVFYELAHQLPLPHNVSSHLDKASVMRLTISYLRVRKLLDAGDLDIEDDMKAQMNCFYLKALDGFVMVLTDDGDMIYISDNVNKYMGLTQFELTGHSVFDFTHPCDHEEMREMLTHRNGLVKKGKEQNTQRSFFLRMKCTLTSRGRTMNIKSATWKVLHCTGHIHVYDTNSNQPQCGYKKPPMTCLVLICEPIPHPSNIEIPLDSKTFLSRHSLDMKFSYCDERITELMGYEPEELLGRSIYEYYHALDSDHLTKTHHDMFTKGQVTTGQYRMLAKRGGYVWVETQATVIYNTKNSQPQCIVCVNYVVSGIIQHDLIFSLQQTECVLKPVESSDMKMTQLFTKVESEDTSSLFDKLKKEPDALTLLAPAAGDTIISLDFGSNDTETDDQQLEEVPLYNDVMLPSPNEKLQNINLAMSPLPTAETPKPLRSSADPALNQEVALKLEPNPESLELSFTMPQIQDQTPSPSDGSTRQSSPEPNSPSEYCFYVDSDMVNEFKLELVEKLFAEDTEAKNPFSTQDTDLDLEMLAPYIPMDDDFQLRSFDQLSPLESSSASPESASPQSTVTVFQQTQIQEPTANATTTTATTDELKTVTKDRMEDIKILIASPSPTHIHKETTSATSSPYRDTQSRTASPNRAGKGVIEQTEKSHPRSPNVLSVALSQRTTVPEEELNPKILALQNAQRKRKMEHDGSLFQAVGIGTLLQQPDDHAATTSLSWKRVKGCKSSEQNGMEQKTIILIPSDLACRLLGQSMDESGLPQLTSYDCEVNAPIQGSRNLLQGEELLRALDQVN

Row | Structure (SMILES) | EC50
1 | Cc1onc(-c2ccccc2)c1C(=O)Nc1ccc(S(=O)(=O)N2CCCC2)cc1 | > 35 µM (inactive)
2 | O=C(N/N=C(\c1ccccc1)c1ccccn1)c1ccccc1Cl | 11.2 µM
3 | CC(C)Cn1c(/C=N/Nc2nc3ccccc3[nH]2)nc2ccccc21 | 9.05 µM
4 | CC(=O)c1ccc(N2C(=NC(=O)COc3ccccc3)SC3CS(=O)(=O)CC32)cc1 (stereo not drawn) | > 35 µM (inactive)
5 | O=C(COC(=O)c1cccc(S(=O)(=O)N2CCOCC2)c1)Nc1ncc(C(F)(F)F)cc1Cl | > 35 µM (inactive)
6 | CCSc1nc(NCCN(C)C)c2c3c(sc2n1)COC(C)(CC)C3 (stereo not drawn) | > 35 µM (inactive)
7 | CCCCN(C(=O)c1c(C)[nH]c(C(=O)OCC)c1C)c1ccccc1 | > 35 µM (inactive)
8 | CN(C)c1ccc(S(=O)(=O)NCC(=O)OCC(=O)Nc2cc(Cl)cc(Cl)c2)cc1[N+](=O)[O-] | > 35 µM (inactive)
9 | Oc1ccc(CN2CCN(Cc3ccccc3)CC2)c2cccnc12 | > 35 µM (inactive)
10 | CCCCCCC1CCC(c2nc(-c3ccncc3)no2)CC1 (stereo not drawn) | > 35 µM (inactive)
11 | O=C(O)c1ccc2cc(-c3ccccc3)[nH]c2c1 | > 35 µM (inactive)
12 | COc1ccc(/C=C2\SC(=O)N(CCC(=O)N(C)C3CCS(=O)(=O)C3)C2=O)cc1 (stereo not drawn) | > 35 µM (inactive)
13 | CCN(CCCNC(=O)CCc1nc(-c2ccc(OC)cc2)no1)c1cccc(C)c1 | > 35 µM (inactive)
14 | Cc1ccc(C(CC(=O)O)C2CCOC(C)(C)C2)cc1 (stereo not drawn) | > 35 µM (inactive)
15 | CCCCn1c(=O)c2c(O)cc(=O)oc2c2ccccc21 | > 35 µM (inactive)
16 | CC(C)CC(=O)NC(c1cccs1)c1ccc2cccnc2c1O (stereo not drawn) | 6.26 µM
17 | Cn1c(CC(=O)Nc2ccccc2)cc2ccccc21 | > 35 µM (inactive)
18 | O=C(Nc1nc2ccc([N+](=O)[O-])cc2s1)c1c(F)cccc1F | > 35 µM (inactive)
19 | Oc1[nH]c2ccc(Br)cc2c1N=NC(=S)N1CCOCC1 | 6.79 µM
20 | CC(OC(=O)c1ncc(Cl)c(Cl)c1Cl)C(=O)NC1(C#N)CCCCC1 (stereo not drawn) | 17.4 µM
21 | Cc1ccc2nc(N3CCN(C)CC3)[nH]c2c1 | > 35 µM (inactive)
22 | Cc1ccccc1-n1c(=O)n(Cc2ccc(C(=O)O)cc2)c(=O)c2[nH]cnc21 | > 35 µM (inactive)
23 | O=C1CCCC(O)=C1C=Nc1cccc(C(F)(F)F)c1 | > 35 µM (inactive)
24 | CN(CCS(=O)(=O)c1ccc(Cl)cc1)Cc1cccnc1 | > 35 µM (inactive)
25 | O=C(CN1C(=O)COc2ccc(Cl)cc21)Nc1ccc2c(c1)OCCO2 | > 35 µM (inactive)
26 | CC(C)c1ccc(NC(=O)CCc2ccccc2)cc1 | > 35 µM (inactive)

Row | Structure (SMILES) | EC50
27 | Cc1ccc2nc(SCC(=O)c3ccccc3)nc(=O)n2c1 | > 35 µM (inactive)
28 | O=C(NCCCN1CCN(c2ccccc2F)CC1)Nc1ccccc1[N+](=O)[O-] | > 35 µM (inactive)
29 | c1ccc(-c2nnc(-c3ccccn3)nc2NC2CCCCC2)cc1 | 6.78 µM
30 | Cc1cc(C)c2c(N)c3ccccc3nc2n1 | 17.4 µM
31 | COc1cccc(/C=N/Nc2ccc([N+](=O)[O-])cn2)c1O | 4.93 µM
32 | COc1ccc(N/N=C(/N=Nc2nc(C)cc(=O)[nH]2)c2ccccc2)cc1 | 0.856 µM
33 | O=[N+]([O-])c1ccc(OCCCCN2CCCCC2)cc1 | > 35 µM (inactive)
34 | O=C(N/N=C/c1c(O)ccc2ccccc12)c1cccc(C(F)(F)F)c1 | 8.56 µM
35 | COc1cc2ccccc2cc1C(=O)NNC(=O)c1ccccc1O | > 35 µM (inactive)
36 | Cc1nc2nc3c(cn2n1)C(=O)CC(c1ccccc1)C3 (stereo not drawn) | > 35 µM (inactive)
37 | COc1ccc2cc3cc(C(=O)N4CCN(c5ccccn5)CC4)oc3nc2c1 | > 35 µM (inactive)
38 | COc1ccc(CNC(=O)CN(CC2CCCO2)C(=O)CNS(=O)(=O)c2ccc(C)cc2)cc1 (stereo not drawn) | > 35 µM (inactive)
39 | CC(=O)NC(c1ccc2ccccc2c1)c1ccc2cccnc2c1O (stereo not drawn) | 8.56 µM
40 | COc1ccc(C/C(C)=N/NS(=O)(=O)c2ccc(Br)cc2)cc1 | > 35 µM (inactive)
41 | Oc1ccc(CN2CCC(Cc3ccccc3)CC2)c2cccnc12 | 5.17 µM
42 | Oc1ccc2ccccc2c1N=Nc1nccs1 | 5.74 µM
43 | CC(C)c1cc(-c2cc(C(=O)NCc3ccccc3)on2)nc(NC2CCCC2)n1 | > 35 µM (inactive)
44 | Cn1c(CCNC(=O)c2ccco2)nc2cc(NC(=O)C3CCCCC3)ccc21 | > 35 µM (inactive)
45 | CCC1CCCCN1Cc1c(O)ccc2c(=O)c(-c3ccccc3OC)coc12 (stereo not drawn) | > 35 µM (inactive)
46 | CCCC(C)NC(=O)CN1C(=O)NC2(CCc3ccccc32)C1=O (stereo not drawn) | > 35 µM (inactive)
47 | O=C(N/N=C/c1cc(Br)cc(Cl)c1O)c1ccc2c(c1)OCO2 | > 35 µM (inactive)
48 | COc1ccc(OC)c(NC(=O)CCc2nnc3ccc(NCc4ccco4)nn23)c1 | > 35 µM (inactive)
49 | COc1ccc(/C=N/NC(=O)c2cccnc2)cc1CN1CCN(c2ccc(F)cc2)CC1 | > 35 µM (inactive)
50 | CCN(CC)CCNc1cc(C)nc2c1C(=O)C(=O)C=C2N1CCCCC1 | 3.63 µM
51 | CC(C)c1nc(CNC(=O)CCc2nnc(-c3ccsc3)o2)cs1 | > 35 µM (inactive)
52 | O/N=C1/C2C3CC4C5C3C1C5C1(OCCO1)C42 (stereo not drawn) | > 35 µM (inactive)

Row | Structure (SMILES) | EC50
53 | CCn1nc(NS(=O)(=O)c2ccc(NC(C)=O)cc2)c2cc3cccc(C)c3nc21 | > 35 µM (inactive)
54 | COc1ccc2nc(NC(=O)CSc3nccc(C)n3)sc2c1 | > 35 µM (inactive)
55 | Cn1c(=O)cc(C(=O)N/N=C/c2ccc(F)cc2)[nH]c1=O | > 35 µM (inactive)
56 | CCOc1cccc(-c2c(C(=O)N/N=C/c3ccc(Br)cc3)nnn2-c2nonc2N)c1 | > 35 µM (inactive)
57 | O=C(NCc1ccccc1)C(=O)c1cn(CC(=O)N2CCOCC2)c2ccccc12 | > 35 µM (inactive)
58 | Cc1cc([N+](=O)[O-])nn1Cc1ccc(C(=O)N/N=C/c2ccc(O)cc2O)cc1 | 22.4 µM
59 | Cc1ccc(Nc2nc(CSc3nnc(-c4ccncc4)n3C)cs2)cc1 | > 35 µM (inactive)
60 | Cc1nc(C(=O)Nc2ccc(Cl)cc2Cl)nn1-c1cc(OC(C)C)c(Cl)cc1Cl | > 35 µM (inactive)
61 | O=S(=O)(NCc1nnc2c(C(F)(F)F)cc(Cl)cn12)c1ccccc1 | > 35 µM (inactive)
62 | Cc1nc(-n2[nH]c3c(c2=O)CCCC3)[nH]c(=O)c1Cc1ccccc1 | 9.42 µM
63 | Cc1ccc(C(=O)Nc2cccc([N+](=O)[O-])c2)cc1S(=O)(=O)Nc1ccc(NC(=O)c2ccccc2)cc1 | > 35 µM (inactive)
64 | COC(=O)Nc1ccc(S(=O)(=O)N(C)C)cc1 | > 35 µM (inactive)
65 | CCOC(=O)c1sc(N(Cc2ccccc2)C(=O)COC(=O)c2ccc(O)cc2)nc1C | 12.2 µM
66 | COc1ccc2[nH]c(C(=O)N/N=C/c3ccccc3OC)cc2c1 | > 35 µM (inactive)
67 | COc1cccc(/C=N/NC(=O)c2c(C)nc3ccc(Br)cn23)c1O | 5.52 µM
68 | COc1cccc(CN2CCC(N(CCc3ccccc3)Cc3ccccc3)CC2)c1OC | > 35 µM (inactive)
69 | O=C(Cc1ccc(S(=O)(=O)N2CCOCC2)s1)Nc1ccc(S(=O)(=O)N2CCCCC2)cc1 | > 35 µM (inactive)
70 | COc1ccc(C(CC(=O)NCc2ccccc2)Sc2n[nH]c(-c3ccccc3)n2)cc1 (stereo not drawn) | 33 µM
71 | CN(C)C(=O)CSc1nc2ccccc2n1Cc1ccccc1 | > 35 µM (inactive)
72 | COCCNC(=O)c1sc2nc(-c3ccccc3)cn2c1C | > 35 µM (inactive)
73 | Oc1[nH]c2ccccc2c1N=NC(=S)N1CCOCC1 | 8 µM
74 | O=C(COC(=O)c1ccccc1Nc1ccccc1)NCc1ccccc1Cl | > 35 µM (inactive)
75 | Cc1ccc(NC(=S)N/C(=N/S(=O)(=O)c2ccccc2)c2ccccc2)cc1 | > 35 µM (inactive)
76 | Nc1cc2c3c(cccc3c1)C(=O)N(CCN1CCCC1)C2=O | 16.4 µM
77 | CC(=O)Nc1sc(-c2ccccc2)nc1-c1ccccc1 | > 35 µM (inactive)
78 | Cc1ccc(Nc2nnc(-c3ccccc3N)o2)cc1C | > 35 µM (inactive)

Row | Structure (SMILES) | EC50
79 | CCOC(=O)c1sc(=S)n(-c2ccccc2)c1C | > 35 µM (inactive)
80 | Cc1cccc(-c2noc(CN(C)S(=O)(=O)c3cc(Cl)ccc3Cl)n2)c1 | > 35 µM (inactive)
81 | CC(C)(C)NC(=O)COC(=O)c1ccc(Cl)nc1 | > 35 µM (inactive)
82 | COCCN=c1scc(-c2cc(OC)c(OC)c(OC)c2)n1/N=C/c1c(C)[nH]c2ccccc12 | > 35 µM (inactive)
83 | Oc1ccc(/C=N/Nc2ccc(C(F)(F)F)cn2)c(O)c1 | 29.8 µM
84 | CCCCC(=O)NC(c1ccccc1)c1ccc2cccnc2c1O (stereo not drawn) | 17.4 µM
85 | CCCNC(=S)N1CCCC(c2nc3ccccc3[nH]2)C1 (stereo not drawn) | > 35 µM (inactive)
86 | Cc1ccc(S(=O)(=O)N2CC(C)N(C(=O)N3CCOCC3)C2C)cc1 (stereo not drawn) | > 35 µM (inactive)
87 | Cc1cc(C)cc(N(CC(=O)Nc2ccccc2C(=O)N2CCOCC2)S(C)(=O)=O)c1 | > 35 µM (inactive)
88 | COc1ccc(NC(=O)CCC(=O)N(Cc2ccc(OC)c(OC)c2)c2nccs2)cc1 | > 35 µM (inactive)
89 | CCN(CC)S(=O)(=O)c1ccc(N/N=C(\C)c2ccc(OC)cc2O)nc1 | 7.86 µM
90 | CCCN(CCC)C(=S)Nc1cc(C(=O)OC)ccc1C(=O)OC | > 35 µM (inactive)
91 | CCOC(=O)/C(N=Nc1ccc(F)cc1)=C(/O)c1ccc([N+](=O)[O-])cc1 | > 35 µM (inactive)
92 | COc1ccc2cc(C(C)C(=O)N3CCC(C(N)=O)CC3)ccc2c1 (stereo not drawn) | > 35 µM (inactive)
93 | O=C(CSc1ncn[nH]1)NCCc1ccc(Cl)cc1Cl | > 35 µM (inactive)
94 | Oc1ccc(CN2CCc3ccccc3C2)c2cccnc12 | 2.4 µM
95 | COc1ccc(-c2cn3nc(SCC(=O)NCC4CCCO4)ccc3n2)cc1 (stereo not drawn) | > 35 µM (inactive)
96 | Cc1ncc(CO)c(/C=N/Nc2ccc(C(F)(F)F)cn2)c1O | 17.8 µM
97 | Cn1ncc(Cl)c1C(=O)Nc1nc2ccc(Cl)cc2s1 | > 35 µM (inactive)
98 | COc1ccc(NC(=S)N2CCN(C(=O)c3ccccc3)CC2)cc1 | > 35 µM (inactive)
99 | CCOC(=O)c1c(S(=O)(=O)NCc2ccc(C)o2)c(C)n(C)c1C | > 35 µM (inactive)
100 | O=C(N/N=C/c1ccccn1)c1ccc(Br)cc1 | 12.2 µM
101 | O=C(N/N=C/c1ccc(O)cc1O)c1ccc(CN2C(=O)c3cccc4cccc2c34)cc1 | 19.6 µM
102 | CCN(CC)CCNC1=CC(=O)OC12CCCCC2 | > 35 µM (inactive)
103 | COc1ccc(F)cc1CSc1nnnn1-c1ccc(O)cc1 | > 35 µM (inactive)
